From US11072585B2 (PharmAkea, Inc., priority 2015, dated 2021)

Tests used:
[1] = system: kidney fibrosis in Col4A3 deficient mice; assay: Mouse Alport model of kidney fibrosis; format: in vivo; conditions: dosed prophylactically at 30 mg/kg p.o.
Procedure: Example B-7: Mouse Alport Model of Kidney Fibrosis
Mice with mutations in one of the genes of glomerular basement membrane collagen, Collagen IV-a3/a4/a5, have defects in glomerular function with development of kidney fibrosis These mice develop renal dysfunction and die prematurely of renal failure with specific timing dependent on the strain background upon which the mutation is present. LOXL2 inhibitors are administered orally to Col4A3 deficient mice on a SV129 background either prophylactically (ca. weeks 2-3 of age) or therapeutically (ca. weeks 4-6 wks of age). Mice are either sacrificed at a predefined time (7-9 wks of age) or continually dosed until they lose >15% of their body weight which preceeds death by 1-3 days. If specifically terminated, mice are perfused transcardially with PBS, and one kidney clamped at the renal artery and the other perfused with Dynabeads for magnetic isolation of glomeruli. […] RNA from glomeruli and renal cortex is analyzed by real time RT-PCR for genes of interest including MMP-10, MMP-12, IL6, MCP-1, TGF-b1, CTGF, MMP-2, and MMP-9. […] Collagen 1 staining is blindly analyzed for fibrosis scoring, and fibronectin staining is blindly analyzed for glomerulosclerosis scoring. For all studies albuminuria is assessed weekly and BUN at the time of tissue harvest.

human LOXL2 = human LOXL2 (Homo sapiens (Human), UniProt Q9Y4K0); assay: Human LOXL2 amine oxidase activity assay (Amplex Red); format: biochemical; conditions: concentrated conditioned media from CHO cells stably expressing human LOXL2; 2 h at 37° C. with compound; DAP substrate
Outline: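 Concentrated conditioned medium from CHO cells stably expressing human LOXL2 was preincubated with compound for 2 h at 37 °C in 50 mM borate, pH 8. 1,5-diaminopentane substrate and Amplex Red/HRP were then added. Fluorescence (544/590) was read kinetically every 2 min for 1 h, with activity taken from the linear slope.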

[2] = system: bleomycin-induced lung fibrosis in C57Bl/6 male mice; assay: Mouse oropharyngeal bleomycin model of lung fibrosis; format: in vivo
Procedure: Example B-3: Mouse Oropharyngeal Bleomycin Model of Lung Fibrosis
Lung fibrosis is induced in C57Bl/6 male mice by administering bleomycin (0.1-4 U/kg) via oropharyngeal instillation. Mice are either pretreated with vehicle or test compound (1 day to 1 hour) orally, intraperitoneally, intravenously or subcutaneously before bleomycin installation (prophylactic dosing) or 7-14 days post bleomycin instillation (therapeutic dosing). The route and frequency of dosing are based on previously determined pharmacokinetic properties for the LOXL2 inhibitor in mouse. After bleomycin instillation animals are monitored daily for weight loss and clinical signs for 14-28 days prior to sacrifice. Animals are euthanized at study termination and weighed and blood (for isolation of plasma) and bronchoalveolar lavage are collected and frozen for subsequent analyses. Lungs are removed, weighed, then either inflated and fixed by instillation of 10% formalin and prepared for histological examination or homogenized in 1 ml PBS for collagen determination using a hydroxyproline assay. For histological examination, lung slices are stained with Masson's trichrome or Picro-Sirius red to measure cross-linked collagen as an indicator of fibrosis and an Ashcroft score of lung fibrotic and inflammatory damage determined. In addition, immunohistochemistry of fibrotic proteins such as a-smooth muscle actin can be recorded. For lung hydroxyproline content, 0.5 ml of the lung homogenate is removed and added to 0.5 ml 12 N HCl and the samples heated at 120° C. overnight. After the acid hydrolysis, 25-100 μl of the supernatant is dried down, resuspended in 25 μl water and the hydroxyproline content determined by the addition of 0.5 ml Chloramine T solution (140 mg Chloramine T in 6.5 ml ddH2O+1 ml n-propanol+2.5 ml 1M sodium acetate) and incubation at room temperature for 20 min. After the incubation, 0.5 ml Erlich's solution (1.48 g of 4-(dimethylamino(benzaldehyde) in 7 ml n-propanol+2.88 ml 60% perchloric acid and 0.12 ml ddH2O) is added and incubated at 65° C. for 15 min before reading the absorbance at 550 nm. The concentration of hydroxyproline in each […] is determined from a hydroxyproline (purchased from Sigma) standard curve.

Sequence of human LOXL2 (Q9Y4K0 26-774): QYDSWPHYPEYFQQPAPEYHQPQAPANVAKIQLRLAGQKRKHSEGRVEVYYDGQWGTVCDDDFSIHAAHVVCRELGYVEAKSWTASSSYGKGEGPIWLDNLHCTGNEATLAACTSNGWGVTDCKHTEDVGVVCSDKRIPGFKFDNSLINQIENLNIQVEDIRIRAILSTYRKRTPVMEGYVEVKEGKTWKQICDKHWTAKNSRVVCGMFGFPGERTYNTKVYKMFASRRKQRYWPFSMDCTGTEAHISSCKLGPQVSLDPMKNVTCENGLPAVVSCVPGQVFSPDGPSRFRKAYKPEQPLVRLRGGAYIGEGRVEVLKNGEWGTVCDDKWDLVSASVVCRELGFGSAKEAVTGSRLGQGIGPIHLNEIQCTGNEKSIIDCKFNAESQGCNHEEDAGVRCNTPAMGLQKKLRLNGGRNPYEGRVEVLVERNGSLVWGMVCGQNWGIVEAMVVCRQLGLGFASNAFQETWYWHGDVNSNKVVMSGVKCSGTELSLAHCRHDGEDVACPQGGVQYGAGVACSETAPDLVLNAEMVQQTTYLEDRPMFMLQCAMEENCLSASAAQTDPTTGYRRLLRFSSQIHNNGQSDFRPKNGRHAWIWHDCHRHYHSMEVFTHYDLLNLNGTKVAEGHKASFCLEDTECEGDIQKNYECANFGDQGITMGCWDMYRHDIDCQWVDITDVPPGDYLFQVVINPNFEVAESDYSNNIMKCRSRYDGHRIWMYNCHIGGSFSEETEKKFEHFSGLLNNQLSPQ

Cl.NCc1cc(Oc2cccc(C(=O)N3C[C@@H](O)[C@H](F)C3)c2)nc(C(F)(F)F)c1 (stereo in doubt) [Compound 1-21, (R,R)-trans-(3-((4-(Aminomethyl)-6-(trifluoromethyl)pyridin-2-yl)oxy)phenyl)(3-fluoro-4-hydroxypyrrolidin-1-yl)methanone hydrochloride]
efficacy in Alport kidney fibrosis model, prophylactic dosing [1]: efficacious | IC50 (human LOXL2): < 0.3 µM | efficacy in bleomycin lung fibrosis model, prophylactic dosing ([2]; dosed prophylactically at 60 mg/kg p.o.): efficacious | efficacy in bleomycin lung fibrosis model, therapeutic dosing ([2]; dosed therapeutically at 60 mg/kg p.o.): efficacious
